Oligonucleotides are written 5' to 3', each unit as a sugar letter and its base; * is a phosphorothioate linkage, no mark a phosphodiester; rarer units and linkages stand in square brackets, end groups in braces. Plain capitals give the bases only. m = 2'-O-methyl; r = 2'-OH (RNA); f = 2'-fluoro
Legend:
INF-α = test: PBMC cytokine release assay, INF-α (ELISA); settings: 10 nM, 24 hours; for immunostimulatory activity (INF-α) compared with Rag1-40, in words: PBMC
Experimental: Cells were treated with the indicated duplexes at a final concentration of 10 nM or lipopolysaccharide (LPS) as a positive control for 24 hours, respectively. The levels of INF-α and TNF-α in the cell supernatant were detected by ELISA kit. […] Data represent mean±SD of two independent experiments.
Human peripheral blood mononuclear cells (Allcells, Alameda, CA) were seeded in a 96-well microplate at a density of approximately 10×10^4 cells/well. Transfection of dsRNA was performed using RNAiMAX (Invitrogen, Carlsbad, CA) following manufacturer's instructions. Supernatants were collected 24 hours after transfection and immediately assayed for IFN-α and TNF-α production using ELISA kit (R&D Systems). Each treatment group was analyzed in triplicate.
To assess the immunostimulatory effect of chemically modified saRNAs, human peripheral blood mononuclear cells (PBMC) from healthy donors were incubated with the double-stranded saRNAs, and INF-α and TNF-α levels in the supernatant of treated cells after 24 hours were measured.

[1] = tested on: Rag1-40 target sequence in the 3′ UTR of firefly luciferase, COS-1 cells; test: Analysis of off-target effects (pOff-Target dual luciferase reporter in COS-1 cells); settings: lysed 48 hours after transfection, luciferase activity
RNase A = target: T1, RNase A (Bos taurus, UniProt P61823); test: saRNA stability analysis in the presence of RNase A (agarose gel); settings: incubation 0 to 96 hours
T1 sequence (P61823 27-150): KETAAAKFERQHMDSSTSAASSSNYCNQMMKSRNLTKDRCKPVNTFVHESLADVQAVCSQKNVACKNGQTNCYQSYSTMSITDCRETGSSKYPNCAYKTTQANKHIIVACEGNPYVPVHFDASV
Experimental: The duplexes obtained at each time point above were each added to 1 μL of 10× loading buffer, and then frozen in liquid nitrogen. After incubation, all samples were detected for the double-stranded RNA by 4% agarose gel electrophoresis, and the content of each duplex was analyzed by Image J software.
The duplexes obtained at each time point indicated above were each added to 1 μL of 10× loading buffer, and then frozen in liquid nitrogen. After incubation, all samples were detected for the double-stranded RNA by 4% agarose gel electrophoresis, and the content of each duplex was analyzed by Image J software.
saRNA (1.5 μL, 10 μM) was incubated at a final concentration of 0.02 mg/mL in PBS in the presence of RNase A (Amresco, OH, USA) at 37° C. for different durations. At the end of the incubation, the mixture was snap frozen in liquid nitrogen to stop nuclease activity. Samples were analyzed on a 4% agarose gel and examined for duplex degradation.
All chemically modified duplexes (Rag1-40-1 to Rag1-40-32) were incubated with 0.02 μg/L of RNase A for different durations (0 to 96 hours). At the end of the incubation, the size and amount of duplexes were detected by agarose gel electrophoresis.

T24 cells = test: Cellular proliferation assay (CCK8) in T24 cells, alone and combined with Mitomycin C or valrubicin; type: cell-based, human; settings: T24 cells, 10 nM, 72 hours, CCK8
Text: (§1) After the transfection, the number of viable cells was detected with a CCK8 kit, and plotted as the percentage of the blank control treatment group. […] A transfection sample without oligonucleotide served as a blank control. Non-specific duplex (dsCon) transfected sample served as a negative control. Data are presented as mean±SD of at least two independent experiments. The values below the dashed line indicate stronger growth inhibitory activity compared to duplex Rag1-40 without chemical modification.
T24 cells were transfected with RAG1-40-31 at concentrations of 0.1, 0.5, 1, 5, 10, 25 and 50 nM for 24 hours, and then Mitomycin C was added at concentrations of 1, 10, 100, 1000 and 10000 nM. The combined treatment was carried out with concentrations in pairs. After treatment, the cellular proliferation was detected by CCK8 kit. FIGS. 16A-16B show the relative proliferation proportion of T24 cells after the combined treatment with chemically modified saRNA RAG1-40-31 and valrubicin. […] Control and DMSO are the blank transfection control and the solvent for dilution control, respectively.
T24 cells were transfected with RAG1-40-31 at concentrations of 0.1, 0.5, 1, 5, 10, 25 and 50 nM for 24 hours, and then valrubicin at concentrations of 1, 10, 100, 1000 and 10000 nM was added. The combined treatment was carried out with concentrations in pairs. After treatment, the cellular proliferation was detected by CCK8 kit.
(§2) Human bladder cancer cells Ku-7-LG (ATCC), J82 (ATCC) and T24 (ATCC) were cultured in McCoy medium (Gibco) comprising 10% calf serum (Sigma-Aldrich) and 1% penicillin/Streptomycin (Gibco). Cells were cultured at 37° C. under 5% CO2. Ku-7-LG, J82 and T24 cells were plated into 12-well plates at 10×10^4 cells per well, transfected with the small RNA at a concentration of 10 nM (unless otherwise specified) for three days, using RNAiMax (Invitrogen, Carlsbad, CA) according to the manufacturer's instructions. Two replicate wells were set for each treatment.
(§3) Cells were plated in a 96-well plate at 2˜4×10^3 cells/well, cultured overnight, and transfected with the oligonucleotide duplexes. Three days after transfection, CCK8 (Dojindo) was used to detect cellular proliferation following manufacturer's instructions. The experimental steps are briefly described as follows: 10 μL of CCK8 solution was added to each well, incubated at 37° C. for 1 hour, and then the absorbance at 450 nm was measured using a microplate reader.
(§4) It is known that p21 induction by saRNA is that a variety of tumor suppressor factors such as p21 protein suppress the proliferation of cancer cells. To evaluate the effect of chemically modified saRNAs on the function of cancer cells, cells (Ku-7-LG and T24) were transfected with 10 nM unmodified and modified saRNAs for 72 hours, and the cellular proliferation was determined by CCK8. […] Furthermore, there was a correlation between RNA activating activity (FIGS. 7A-7B) and suppression of cellular proliferation activity (FIGS. 8A-8B). Strong p21 activators are usually also strong cytostatics.

Ku-7-LG cells = test: Cellular proliferation assay (CCK8) in Ku-7-LG cells; type: cell-based, human; settings: 10 nM, 72 hours
Experimental: Ku-7-LG cells were transfected with the indicated saRNA at 10 nM for 3 days. […] The closer the luciferase value is to the control group, the lower the probability of off-target effects of saRNA is. Control and dsCon2 were blank transfection and double-stranded scramble RNA transfection, respectively. The value of the ordinate represents the mean±SD of two repeated treatments.
as §1, §2, §3, §4

Substance | protein level of INF-α (INF-α; PBMC supernatant) | immunostimulatory activity (INF-α) compared with Rag1-40, in words (INF-α) | off-target effect compared to unmodified Rag1-40, in words [1] | degradation of duplex at 96 hours (RNase A) | suppression of cellular proliferation, in words (T24 cells) | suppression of cellular proliferation, in words (Ku-7-LG cells)
RAG1-IS-1: RNA duplex known to have strong immunostimulatory activity, positive control: S GUCAUCACACUGAAUACCAAU (SEQ ID NO 20), AS AUUGGUAUUCAGUGUGAUGACAC (SEQ ID NO 21) (listed as RNA, chemistry not given here) [reference compound] | 708 pg/mL | – | – | – | – | –
Rag1-40-5: saRNA duplex: sense mCmCAACUCAUUCUCCAAGmUmC (SEQ ID NO 5); antisense UACUfUGGAGAAfUGAGUfUGG*fC*A (SEQ ID NO 10) (sense CCAACUCAUUCUCCAAGUC; antisense UACUUGGAGAAUGAGUUGGCA; 2'-OMe, 2'-F, phosphorothioates; modified_base (1)..(19) (1,2,18,19)=2′-O-methyl(2′-OMe); modified_base (5)..(20) (5,12,17,20)=2′-fluoro; modified_base (19)..(21) (19,20,21)=phosphorothioate (PS) backbone modification) | – | reduced immunostimulatory activity | completely inhibited | – | – | –
Rag1-40-8: saRNA duplex: sense mCmCAACUCAUUCUCCAAGmUmC (SEQ ID NO 5); antisense fUactfUGGAGAAfUGAGfUfUGG*fC*A (SEQ ID NO 13) (sense CCAACUCAUUCUCCAAGUC; antisense UACTUGGAGAAUGAGUUGGCA; 2'-OMe, 2'-F, phosphorothioates, DNA residues; modified_base (1)..(19) (1,2,18,19)=2′-O-methyl(2′-OMe); modified_base (1)..(17) (1,2,9,13,14,17)=2′-fluoro; (1)..(21) (1,5,6,7,8,9,10,11,12,13,14,15,1,61,7,18,19,20, 21)=RNA; (2)..(4) (2,3,4)=DNA; modified_base (16)..(18) (16,17,18)=phosphorothioate (PS) backbone modification) | – | reduced immunostimulatory activity | mitigated or similar off-target effects | little or no signs of degradation | weakens the activity of the saRNA duplex to suppress cellular proliferation | weakens the activity of the saRNA duplex to suppress cellular proliferation
Rag1-40-9: saRNA duplex: sense fCfCAACUCAUUCUCCAAGfUfC (SEQ ID NO 14); antisense fUAfCfUfUGGAGAAfUGAGfUfUGGfCA (SEQ ID NO 6) (sense CCAACUCAUUCUCCAAGUC; antisense UACUUGGAGAAUGAGUUGGCA; 2'-F modifications; modified_base (1)..(19) (1,2,18,19)=2′-fluoro; modified_base (1)..(20) (1,3,4,5,12,16,17,20)=2′-fluoro) | – | reduced immunostimulatory activity | mitigated or similar off-target effects | little or no signs of degradation | – | –
Rag1-40-13: saRNA duplex: sense fCfCAACUCAUUCUCCAAGfUfC (SEQ ID NO 14); antisense UACUfUGGAGAAfUGAGUfUGG*fC*A (SEQ ID NO 10) (sense CCAACUCAUUCUCCAAGUC; antisense UACUUGGAGAAUGAGUUGGCA; 2'-F modifications, phosphorothioates; modified_base (1)..(19) (1,2,18,19)=2′-fluoro; modified_base (5)..(20) (5,12,17,20)=2′-fluoro; modified_base (19)..(21) (19,20,21)=phosphorothioate (PS) backbone modification) | – | reduced immunostimulatory activity | mitigated or similar off-target effects | – | – | –
Rag1-40-15: saRNA duplex: sense fCfCAACUCAUUCUCCAAGfUfC (SEQ ID NO 14); antisense U*A*fCfUfUGGAGAAfUGAGfUfUGG*fC*A (SEQ ID NO 12) (sense CCAACUCAUUCUCCAAGUC; antisense UACUUGGAGAAUGAGUUGGCA; 2'-F modifications, phosphorothioates; modified_base (1)..(19) (1,2,18,19)=2′-fluoro; modified_base (2)..(21) (2,3,19,20,21)=phosphorothioate (PS) backbone modification; modified_base (3)..(20) (3,4,5,12,16,17,20)=2′-fluoro) | – | reduced immunostimulatory activity | mitigated or similar off-target effects | little or no signs of degradation | – | –
Rag1-40-24: saRNA duplex: sense mCmCAACUCAUUCUCCAAG*U*C (SEQ ID NO 15); antisense fUactfUGGAGAAfUGAGfUfUGG*fC*A (SEQ ID NO 13) (sense CCAACUCAUUCUCCAAGUC; antisense UACTUGGAGAAUGAGUUGGCA; 2'-OMe, 2'-F, phosphorothioates, DNA residues; modified_base (1)..(2) (1,2)=2′-O-methyl(2′-OMe); modified_base (17)..(19) (17,18,19)=phosphorothioate (PS) backbone modification; modified_base (1)..(17) (1,2,9,13,14,17)=2′-fluoro; (1)..(21) (1,5,6,7,8,9,10,11,12,13,14,15,1,61,7,18,19,20, 21)=RNA; (2)..(4) (2,3,4)=DNA; modified_base (16)..(18) (16,17,18)=phosphorothioate (PS) backbone modification) | – | – | completely inhibited | little or no signs of degradation | weakens the activity of the saRNA duplex to suppress cellular proliferation | weakens the activity of the saRNA duplex to suppress cellular proliferation
Rag1-40-27: saRNA duplex: sense fCfCAACUCAUUCUCCAAG*U*C (SEQ ID NO 16); antisense fUmAfCfUfUmGmGmAmGmAmAfUmGmAmGfUfUmGmGfCmA (SEQ ID NO 8) (sense fCfCrArArCrUrCrArUrUrCrUrCrCrArArG*rU*rC) | – | reduced immunostimulatory activity | completely inhibited | little or no signs of degradation | negatively affects proliferation suppression activity | negatively affects proliferation suppression activity

Source: patent US20240301409A1, “Chemically Modified Small Activating RNA” (RACTIGEN THERAPEUTICS, priority 2021, published 2024)
